# According to patent publication US7446201B2, “Substituted heteroaryl benzofuran acids” (Wyeth, priority 2003, dated 2008):
# pIC50: −log10 of the molar value. Counter-ions that a name gives are not always drawn.
# Assays:
# [1] = molecular target: T1, recombinant human plasminogen activator inhibitor-1 (PAI-1) (Homo sapiens, UniProt P05121); experiment: Primary Screen for the PAI-1 Inhibition; assay type: biochemical; details: for pIC50: footnote b: determined by a modification of the Primary Screen for PAI-1 Inhibition; for inhibition at 25 µM: 25 μM test compound
# T1 construct: purchased Molecular Innovations, Royal Oak, Mich
# T1 sequence (P05121 24-402): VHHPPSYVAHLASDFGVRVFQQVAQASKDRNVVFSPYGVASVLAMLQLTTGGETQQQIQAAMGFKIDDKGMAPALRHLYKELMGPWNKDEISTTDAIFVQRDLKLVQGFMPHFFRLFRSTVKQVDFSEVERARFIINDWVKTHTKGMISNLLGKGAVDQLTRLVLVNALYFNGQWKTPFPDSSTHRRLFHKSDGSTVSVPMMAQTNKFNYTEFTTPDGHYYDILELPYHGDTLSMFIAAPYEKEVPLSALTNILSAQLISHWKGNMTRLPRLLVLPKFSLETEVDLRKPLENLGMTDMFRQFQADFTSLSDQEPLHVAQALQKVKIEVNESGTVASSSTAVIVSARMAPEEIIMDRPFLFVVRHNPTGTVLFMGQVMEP
# Method: Test compounds are dissolved in DMSO at a final concentration of 10 mM, then diluted 100× in physiologic buffer. The inhibitory assay is initiated by the addition of the test compound (1-100 μM final concentration, maximum DMSO concentration of 0.2%) in a pH 6.6 buffer containing 140 nM recombinant human plasminogen activator inhibitor-1 (PAI-1; Molecular Innovations, Royal Oak, Mich.). Following a 1 hour incubation at room temperature, 70 nM of recombinant human tissue plasminogen activator (tPA) is added, and the combination of the test compound, PAI-1 and tPA is incubated for an additional 30 minutes. Following the second incubation, Spectrozyme-tPA (American Diagnostica, Greenwich, Conn.), a chromogenic substrate for tPA, is added and absorbance read at 405 nm at 0 and 60 minutes. Relative PAI-1 inhibition is equal to the residual tPA activity in the presence of the test compound and PAI-1. Control treatments include the complete inhibition of tPA by PAI-1 at the molar ratio employed (2:1), and the absence of any effect of the test compound on tPA alone.
# human PAI-1 = human PAI-1 (Homo sapiens, UniProt P05121); experiment: Assay for Determining IC50 of Inhibition of PAI-1 (Antibody Assay); assay type: binding; details: footnote a: determined by the Antibody Assay
# Sequence of human PAI-1 (P05121 24-402): as above
# Method: This assay is based upon the non-SDS dissociable interaction between tPA and active PAI-1. Assay plates are initially coated with human tPA (10 μg/ml). Test compounds are dissolved in DMSO at 10 mM, then diluted with physiologic buffer (pH 7.5) to a final concentration of 1-50 μM. Test compounds are incubated with human PAI-1 (50 ng/ml) for 15 minutes at room temperature. The tPA-coated plate is washed with a solution of 0.05% Tween 20 and 0.1% BSA, then the plate is blocked with a solution of 3% BSA. An aliquot of the test compound/PAI-1 solution is then added to the tPA-coated plate, incubated at room temperature for 1 hour, and washed. Active PAI-1 bound to the plate is assessed by adding an aliquot of a 1:1000 dilution of the 33B8 monoclonal antibody against human PAI-1, and incubating the plate at room temperature for 1 hour (Molecular Innovations, Royal Oak, Mich.). […] The plate is incubated 45 minutes at room temperature, and color development is determined at OD405 nm. The quantitation of active PAI-1 bound to tPA at varying concentrations of test compound is used to determine the IC50. Results are analyzed using a logarithmic best-fit equation. The assay sensitivity is 5 ng/ml of human PAI-1 as determined from a standard curve ranging from 0-100 ng/ml.
SMILES,melting point,also measured
"CCCCCc1c(-c2ccc(OCc3nnn[nH]3)c3ncccc23)oc2ccccc12 [Compound 5, 5-(3-Pentyl-1-benzofuran-2-yl)-8-(1H-tetraazol-5-ylmethoxy)quinoline]",,pIC50 [1]: 5.09
"c1ccc2oc(-c3ccc(OCc4nnn[nH]4)c4ncccc34)cc2c1 [Compound 3, 5-(1-Benzofuran-2-yl)-8-(1H-tetraazol-5-ylmethoxy)quinoline]",,inhibition at 25 µM [1]: 20%
"c1ccc(-c2c(-c3ccc(OCc4nnn[nH]4)c4ncccc34)oc3ccccc23)cc1 [Compound 4, 5-(3-Phenyl-1-benzofuran-2-yl)-8-quinolinyl 1H-tetraazol-5-ylmethyl ether]",,inhibition at 25 µM [1]: 55%
"CCCCCc1c(-c2ccc3nc(C(F)(F)F)cc(OCc4nnn[nH]4)c3c2)oc2ccccc12 [Compound 2, 6-(3-Pentyl-1-benzofuran-2-yl)-4-(1H-tetraazol-5-ylmethoxy)-2-(trifluoromethyl)-quinoline]",207 to 209 °C (dec.),pIC50 (human PAI-1): 4.67
"c1ccc2oc(-c3ccc(OCc4nnn[nH]4)c4ncccc34)cc2c1 (as salt: salt) [Compound 3, 5-(1-Benzofuran-2-yl)-8-(1H-tetraazol-5-ylmethoxy)quinoline]",> 240 °C (dec.),
"FC(F)(F)c1cc(OCc2nnn[nH]2)c2cc(-c3cc4ccccc4o3)ccc2n1 [Compound 1, 6-(1-Benzofuran-2-yl)-2-(trifluoromethyl)quinolin-4-yl 1H-tetraazol-5-ylmethyl ether]",> 225 °C (dec.),pIC50 [1]: 4.41

# The next lines start with results.
melting point,SMILES,also measured
> 273 °C (dec.),"c1ccc(-c2c(-c3ccc(OCc4nnn[nH]4)c4ncccc34)oc3ccccc23)cc1 (as salt: salt) [Compound 4, 5-(3-Phenyl-1-benzofuran-2-yl)-8-quinolinyl 1H-tetraazol-5-ylmethyl ether]",
226 to 228 °C (dec.),"CCCCCc1c(-c2ccc(OCc3nnn[nH]3)c3ncccc23)oc2ccccc12 (as salt: salt) [Compound 5, 5-(3-Pentyl-1-benzofuran-2-yl)-8-(1H-tetraazol-5-ylmethoxy)quinoline]",
